Experimental data reported in article PMC6272390, “Xanthones from the Leaves of Garcinia cowa Induce Cell Cycle Arrest, Apoptosis, and Autophagy in Cancer Cells” (Molecules, 2015).

Key:
[1] = test system: HeLa; assay: CCK-8 cytotoxicity assay, HeLa; type: cell-based; conditions: Homo sapiens, CCK-8, 72 h treatment
Experimental: (§1) The CCK-8 assay was used to determine cell viability. Test samples were dissolved in dimethyl sulfoxide (DMSO) to make stock solutions and further diluted in culture medium for assays. Human cancer cell lines (HeLa, PANC-1, and A549) were cultured in RPMI 1640, DMEM or DMEM/F12 (1:1) medium containing 10% fetal bovine serum. Cells were maintained at 37 °C in a humidified environment under 5% CO2. Cell proliferation assays were performed as previously described. Briefly, each cell line was seeded in a 96-well tissue culture plate at a predetermined density in 180 µL of complete medium, attached overnight and treated with test compound for 72 h. Then the medium was discarded and replaced with 10% CCK-8 in complete medium and the plates incubated for another 2 h. OD450 was measured with a SpectraMAX 190 spectrophotometer (MDS, Sunnyvale, CA, USA). Background absorbance was subtracted for all wells. Inhibition rate (IR) was determined. IR (%) = (ODDMSO − ODcompound)/ODDMSO × 100%.

[2] = test system: PANC-1; assay: CCK-8 cytotoxicity assay, PANC-1; type: cell-based; conditions: Homo sapiens, CCK-8, 72 h treatment
Experimental: as §1

[3] = CCK-8 cytotoxicity assay, immortalized HL7702 normal liver cells; type: cell-based; conditions: immortalized HL-7702 normal liver cells; CCK-8, 72 h treatment; normal human liver cells, selectivity
[4] = test system: A549; assay: CCK-8 cytotoxicity assay, A549; type: cell-based; conditions: Homo sapiens, CCK-8, 72 h treatment
Experimental: as §1

[5] = test system: HeLa, PANC-1, and A549; assay: Cytotoxicity against cell line panel (summary statements); type: cell-based; conditions: Homo sapiens; summary of Table 2; cell line not specified; read-out: Inhibition on cell viability, IC50
Experimental: as §1

[6] = test system: HeLa cells; assay: Flow cytometry analysis of apoptosis and cell cycle arrest (PI staining); type: cell-based, human; conditions: 24 h, FACS
Experimental: Figure 3 Effects of 1, 5, 16, and 17 on cell cycle and apoptosis. HeLa cells were treated with indicated chemicals. After 24 h of treatment, the cells were harvested, fixed in 70% EtOH, and stained with PI. The cell cycle and apoptosis rate were detected by FACS. Etoposide is used as positive control; (A) Cell cycle attribution of HeLa cells under different concentration treatment; (B) Apoptotic rates were acquired from Sub-G1 fraction from A.
Hypodiploid DNA and cell cycle arrest were evaluated as described previously. Briefly, after treatment of HeLa cancer cells with vehicle (0.1% DMSO) or test compound at the indicated concentrations and times, the cells were harvested by trypsinization and fixed with 70% (v/v) alcohol at 4 °C for 30 min. After washing with PBS, RNase (10 µg/mL) was added and incubated for 15 min at 37 °C to eliminate RNA interference. The cells were then treated with propidium iodide (PI) for another 30 min. The cells were washed, and the DNA content determined using FACSCalibur.

[7] = test system: HeLa cells stably expressing GFP-LC3; assay: GFP-LC3 puncta imaging; type: cell-based, human; conditions: HeLa-GFP-LC3 cells, 10, 20 µM, 24 h, confocal images
Experimental: Figure 5 Xanthone V1 (17) induces GFP-LC3 puncta formation in HeLa cells. HeLa cells stably expressing GFP-LC3 were seeded in a 96-well dish and treated with 10, 20 µM 17 for 24 h. (A) The number of GFP-LC3 puncta in each samples were calculated by Columbus software. The number was averaged of cells from three wells; (B) The images of GFP-LC3 puncta after 10, 20 µM treatment Xanthone V1 were acquired by an Opera (GFP ex and em) with a 40×-H2O objective. Left Panel: the original GFP-LC3 puncta; Right panel: the spots were auto-analyzed by Columbus software.
HeLa cells stably expressing GFP-LC3 were generated as previously described. Briefly, HeLa cells were transfected with pEGFP-LC3 plasmid using Lipofectamine 2000 (11668-019, Invitrogen, Carlsbad, CA, USA). One day after transfection, the cells were treated with 800 μg/mL G418 for 7 days. Surviving cells (termed HeLa-GFP-LC3 below) were continually cultured with 800 μg/mL G418. HeLa-GFP-LC3 cells were seeded in a 96-well plate overnight (clear bottom, black, Perkin-Elmer, Waltham, MA, USA). The cells were then treated with test compounds in triplicate. After 48 h, the cells were fixed with 4% paraformaldehyde and washed three times with PBS. […] The data were analyzed using Columbus 2.3 software (Perkin-Elmer). To quantify GFP-LC3 spots, the following procedures were performed: 1. […]

[8] = test system: HeLa cells (PARP, caspase-3, LC3B, p62); assay: Western blot of apoptosis and autophagy related proteins; type: cell-based, human; conditions: 24 h
Experimental: Figure 4 Effects of 1, 5, 16, and 17 on apoptosis and autophagy related proteins. Western blots of p62, LC3B, PARP, Caspase 3, and GAPDH of HeLa cells after 24 h treatment with 1, 5, 16, and 17. Etoposide was used as positive control.
Cell lysate was prepared in RIPA buffer and quantified by the bicinchoninic acid (BCA) method (Pierce, Rockford, IL, USA). Thirty micrograms of protein per sample was loaded onto a 4%~12% NuPAGE® Novex SDS gel. Protein was transferred using an iBlot® dry blotting device onto nitrocellulose membranes. After blocking nonspecific binding with TBS/Tween20 (0.1%) (TBS/T) containing 5% non-fat milk for 1 h at room temperature, the membrane was incubated in LC3B (Sigma, L7543), SQSTM1/p62 (MBL, PM045), PARP (CST #9542P, Cell Signaling Technology, Shanghai, China), or caspase-3 (CST #9662P, Cell Signaling Technology) (1:1000 in TBS/T containing 3% bovine serum albumin (BSA) in all cases) with gentle shaking at 4 °C overnight. Membranes were washed three times with TBS/T to remove unbound antibody and then incubated with secondary antibody (HRP-conjugated goat anti-mouse IgG or goat anti-rabbit IgG (1:5000) for 1 h at room temperature. Protein bands were visualized with an enhanced chemiluminescence kit (ECL, Pierce).

| SMILES | IC50 [1] [µM] | IC50 [2] [µM] | IC50 at 72 h [3] [µM] | IC50 [4] [µM] | IC50 [5] [µM] | Cell cycle arrest phase [6] | Induction of apoptosis (Sub-G1 fraction) [6] | GFP-LC3 puncta formation [7] | Conversion of LC3-I to LC3-II [8] | PARP cleavage [8] | p62 level [8] |
| --- | --- | --- | --- | --- | --- | --- | --- | --- | --- | --- | --- |
| C=C(C)C(CC=C(C)C)C[C@@]12C[C@@H](CC=C(C)C)C(C)(C)[C@@](CC=C(C)C)(C1=O)c1oc3cc(O)c(O)cc3c(=O)c1C2=O (stereo partly shown) [Compound 15, symphonone H] | 9.83 ± 0.61 | 11.2 ± 4.89 | 3.96 ± 2.38 | 6.27 ± 0.71 | < 10 | – | – | – | – | – | – |
| COc1cc([C@@H]2c3cc4c(cc3[C@@H](O[C@@H]3O[C@@H]5CO[C@@H](C)O[C@H]5[C@H](O)[C@H]3O)[C@H]3COC(=O)[C@H]23)OCO4)cc(OC)c1O [Etoposide, reference compound] | 2.91 ± 0.16 | 22.8 ± 1.93 | 1.42 ± 0.13 | 1.31 ± 0.09 | – | – | – | – | – | – | – |
| C=C(C)C(O)C[C@H](C[C@@]12C[C@@H](CC=C(C)C)C(C)(C)[C@@](CC=C(C)C)(C(=O)C(C(=O)c3ccc(O)c(O)c3)=C1O)C2=O)C(=C)C (stereo partly shown) [Compound 8, garcimultiflorone E] | 17.6 ± 1.45 | 17.7 ± 1.56 | 7.34 ± 0.65 | 7.57 ± 0.57 | < 10 | – | – | – | – | – | – |
| CC(C)=CCc1c2c(c(O)c3c(=O)c4ccc(O)c(O)c4oc13)C=CC(C)(C)O2 [Compound 17, xanthone V1] | 4.71 ± 0.52 | 6.56 ± 2.55 | 9.5 ± 3.74 | 11.8 ± 6.29 | < 10 | at the G1 phase | induced apoptosis | an increase in GFP-LC3 puncta was observed | increased the conversion of LC3-I to LC3-II | activated PARP cleavage | p62 reduction |
| CC(C)=CCc1c(O)c(O)c2oc3c(CC=C(C)C)c(O)ccc3c(=O)c2c1O [Compound 1, 1,3,4,6-tetrahydroxy-2,5-di(3-methylbut-2-enyl)-xanthone] | 8.09 ± 0.78 | 14.8 ± 8.68 | 11 ± 4.36 | 12.6 ± 4.3 | < 10 | at the G2/M phase | – | – | – | – | – |
| CC1(C)C=Cc2c(cc3oc4c(O)c(O)ccc4c(=O)c3c2O)O1 [Compound 16, jacareubin] | 1.09 ± 0.67 | 10.1 ± 7.91 | 5.5 ± 1.79 | 6.9 ± 2.23 | < 10 | at the G2/M phase | induced apoptosis | – | – | activated PARP cleavage | – |
| CC(C)=CCc1c2c(c3oc4c(O)c(O)ccc4c(=O)c3c1O)C=CC(C)(C)O2 [Compound 5, 1,5,6-trihydroxy-2-prenyl-6′,6′-dimethyl-2H-pyrano(2′,3′:3,4)xanthone] | 7.06 ± 0.71 | 9.32 ± 4.58 | 10.5 ± 4.12 | 8.19 ± 0.99 | < 10 | cell cycle arrest at the S phase in a dose-dependent fashion | – | – | – | activated PARP cleavage | – |
